Data as given in PMC11358882, “Neuroprotective Effects of Phenolic Constituents from Drynariae Rhizoma” (Pharmaceuticals, 2024).
Where “and” joins values, the source holds several entries; their conditions need not be identical. Equal entries are not always repeated.

How the values were obtained:
β-secretase = assay: Western blot of β-secretase levels in APP-CHO cells; type: cell-based, Chinese hamster; details: 1.0 μM, 24 h
Protocol: APP-CHO cells were seeded in six-well plates at a density of 6 × 10^5 cells/1000 μL of medium per well and incubated at 37 °C overnight for cell attachment. Then, the medium was replaced with FBS-free RPMI 1640 for 1 h, followed by treatment with test samples at 37 °C. After 24 h, the cells were washed with PBS and lysed in Laemmli sample buffer. The collected cell lysates were boiled at 100 °C for 10 min. For Western blot analysis, 20 μg of proteins were separated by 7.5% SDS-PAGE and transferred to a PVDF membrane using Trans-Blot® Turbo TM (Bio-Rad, Hercules, CA, USA). The membrane was blocked with 5% skim milk in PBS for 1 h and incubated with primary antibodies overnight at 4 °C. The primary antibodies used were sAPPβ antibody, BACE1 antibody, and α-tubulin antibody diluted at 1:1000, 1:1000, and 1:25,000, respectively. After washing with PBS-T (0.1% Tween 20 in PBS) three times for 10 min each, secondary antibodies, diluted to 1:2500, were incubated for 1 h. Protein detection was performed using ECL solution reagent and protein visualization (ChemiDoc^TM XRS+., Bio-Rad, Hercules, CA, USA). The signal intensity of the bands was quantified and normalized to the signal intensity of the α-tubulin band. Results were expressed as a percentage of DMSO-treated control.

Aβ1-42 [1] = molecular target: T1, Aβ1-42 (Homo sapiens, UniProt P05067); assay: Thioflavin T assay, disaggregation of preformed Aβ aggregates; type: biochemical; details: 24 h with Aβ pre-aggregated for 24 h
T1 construct: Aβ1-42 used for the Th T assay was purchased from GL Biochem, Shanghai, China; purchased GL Biochem, Shanghai, China
T1 sequence (P05067 672-713 limits assumed): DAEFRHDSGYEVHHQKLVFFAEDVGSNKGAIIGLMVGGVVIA
Protocol: (§1) The Th T assay was conducted to assess the aggregation of Aβ into oligomers and fibrils. Aβ1-42 was dissolved in DMSO at a concentration of 1 mg/mL, and test samples were also dissolved in DMSO. Aβ1-42 (20 μM) was incubated with various concentrations of test samples at 37 °C for 24 h to evaluate the effects of test samples on Aβ aggregation. Subsequently, 3 μM of Th T was added, and fluorescence was measured after 30 min using an E-max precision microplate reader with excitation at 442 nm and emission at 485 nm (Epoch, BioTek, Winooski, VT, USA). Aβ treated with DMSO only served as a control, and each assay was performed in triplicate. Then, the Th T assay was performed to assess the effects of test samples on the disaggregation of preformed Aβ aggregates. Briefly, 20 μM of Aβ1-42 was incubated at 37 °C for 24 h. Various concentrations of test samples were then added and incubated at 37 °C for an additional 24 h. Subsequently, 3 μM of Th T was added, and fluorescence was measured after 30 min using an E-max precision microplate reader with excitation at 442 nm and emission at 485 nm (Epoch, BioTek, Winooski, VT, USA). Aβ treated with DMSO only served as a control, and each assay was performed in triplicate.

BACE1 = molecular target: T2, BACE1 (Homo sapiens, UniProt P56817); assay: BACE1 (β-secretase) FRET inhibitory assay; type: biochemical; details: isolated compounds; mean ± SD, n = 3; read-out: IC50 BACE1
T2 construct: purchased PanVera Corporation, Madison, WI, USA P2985
T2 sequence (P56817 46-501): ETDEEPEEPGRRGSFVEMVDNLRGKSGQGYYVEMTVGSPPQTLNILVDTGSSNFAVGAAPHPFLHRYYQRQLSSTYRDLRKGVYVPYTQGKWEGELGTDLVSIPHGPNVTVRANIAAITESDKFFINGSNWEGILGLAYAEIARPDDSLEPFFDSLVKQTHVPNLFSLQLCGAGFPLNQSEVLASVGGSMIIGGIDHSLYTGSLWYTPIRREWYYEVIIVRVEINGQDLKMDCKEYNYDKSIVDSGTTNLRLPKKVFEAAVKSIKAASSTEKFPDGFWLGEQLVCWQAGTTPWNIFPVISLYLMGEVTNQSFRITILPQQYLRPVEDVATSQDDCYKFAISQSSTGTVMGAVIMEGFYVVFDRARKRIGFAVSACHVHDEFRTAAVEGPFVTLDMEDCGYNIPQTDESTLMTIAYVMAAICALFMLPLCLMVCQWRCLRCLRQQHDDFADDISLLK
Protocol: The BACE1 inhibition assay was conducted using the BACE1 (β-secretase) FRET Assay Kit, Red Protocol, part number P2985 (PanVera® Corporation, Madison, WI, USA), following the manufacturer’s recommended protocol with minor modifications. The assay mixture consisted of 10 μL of BACE1 (1.0 U/mL), 10 μL of substrate (750 nM Rh-[…]-Quencher in 50 mM ammonium bicarbonate), the assay buffer (50 mM sodium acetate, pH 4.5), and 10 μL of the test samples. […] The reaction mixture was incubated for 60 min at room temperature in darkness. Before measurement, a stop solution (2.5 M sodium acetate) was added to halt the reaction. BACE1 enzyme activity was assessed by monitoring the proteolysis of two fluorophores (Rh-[…]-Quencher), forming the fluorescent donor (Rh-EVNL) with increased fluorescence wavelengths at 530–545 nm (excitation) and 570–590 nm (emission), respectively. All reactions were recorded in black 96-well microplates and performed in triplicate. The percentage of inhibition (%) was calculated using the following formula: inhibition (%)=[1−(S60−S0)/(C60−C0)]×100 , where C60 represents the fluorescence of the control after incubation, C0 represents the initial fluorescence of the control, S60 represents the fluorescence of the tested sample after incubation, and S0 represents the initial fluorescence of the tested sample. The BACE1-inhibitory activities of each sample were quantified in terms of IC50, which was determined from the log–dose inhibition curve.

Aβ1-42 [2] = molecular target: T1, Aβ1-42; assay: Thioflavin T assay, Aβ aggregation; type: biochemical; details: 24 h, Aβ1-42 20 μM
Protocol: as §1

Row | Structure (SMILES) | reduction of β-secretase levels compared to DMSO-treated controls (β-secretase) | degradation of preformed Aβ aggregates (Aβ1-42 [1]; 1.0 μM) | IC50 (BACE1) [µM] | decrease of Aβ aggregation relative to DMSO-treated control (Aβ1-42 [2]; 1.0 μM) | degradation of preformed Aβ aggregates (Aβ1-42 [1]; 0.5 μM) [%] | Aβ aggregation reduced to % of the levels in the DMSO-treated control (Aβ1-42 [2]; 0.5 μM) [%] | decrease of Aβ aggregation relative to DMSO-treated control (Aβ1-42 [2]; 0.5 μM) [%] | Aβ aggregation reduced to % of the levels in the DMSO-treated control (Aβ1-42 [2]; 1.0 μM)
1 | C[C@@H]1O[C@@H](Oc2c(-c3ccc(O)cc3)oc3cc(O[C@@H]4O[C@H](CO)[C@@H](O)[C@H](O)[C@H]4O)cc(O)c3c2=O)[C@H](O)[C@H](O)[C@H]1O [Compound 6, kaempferol 3-O-rhamnoside 7-O-glucoside] | 30% | approximately 45% | 83.27 ± 0.33 | approximately 40% | – | – | – | –
2 | O=c1c(O[C@@H]2O[C@H](CO)[C@@H](O)[C@H](O)[C@H]2O)c(-c2ccc(O)cc2)oc2cc(O[C@@H]3O[C@@H](CO)[C@H](O)[C@H]3O)cc(O)c12 [Compound 7, kaempferol 3-o-b-d-glucopyranoside-7-o-a-L-arabinofuranoside] | 40% and 30% | – | 39.11 ± 0.17 | ~80% | ~60 | ~55 | 55 | approximately 80%
